Source: US8765726B2, “Use of pyridone derivatives in the prevention or treatment of tissue or organ toxicity induced by cytotoxic agents and radiation” (Shanghai Genomics, Inc., priority 2006, dated 2014)

Tests used:
[1] = system: Cyclosporine A-induced nephrotoxicity; assay: Cyclosporine A-induced nephrotoxicity in rats (mean arterial pressure, kidney fibrosis score); type: in vivo, Wistar rats; details: CsA 15 mg/kg subcutaneous + F351 100 mg/Kg/day, once a day for 28 days, low salt diet
Experimental: 24 male Wistar rats (with body weight 180-220 g) were given low salt diet for 7 days before the study and randomly divided into three groups with 8 rats per group. The groups were named as control group, cyclosporine A (CsA)-treated group, and CsA+[…]-treated group. [table] The animals were treated once a day for 28 days as indicated in the above table. Once every 7 days, the animals were weighed and the dose of CsA and […] were adjusted in terms of body weight. Low salt diet was given to the animals during the whole study period. Mean arterial pressure was determined in alert state of the animals at the end of the study. Renal tissues were also collected for pathology examination.

[2] = system: Bleomycin-induced lung fibrosis; assay: Bleomycin-induced lung fibrosis in mice (pathology, lung index); type: in vivo, C57B6 mice; details: Bleomycin 5 mg/kg intratracheal day 1, F351 100 mg/kg/day or dexamethasone 3 mg/kg per day gavage for 28 days
Experimental: Forty eight (48) C57B6 mice (with body weight 16-18 g), half male and half female, were used in the study. Animals were divided into four groups with 12 animals per group. All the animals (except for those in control group) were injected with 5 mg/kg Bleomycin in the volume of 50 ul by intratracheal instillation on day 1 of the study. Animals in control group were injected by PBS instead. […] Pathology examination was performed at day 28.

[3] = system: Adriamycin-induced renal toxicity; assay: Adriamycin-induced renal toxicity in rats (urine proteins, renal pathology); type: in vivo, Wistar rats; details: Adriamycin 7.5 mg/kg tail vein day 1, F351 250 mg/kg per day gavage for 12 weeks
Experimental: 20 male Wistar rats (with body weight 180-220 g) were randomly divided into three groups with 4 rats in control group, 8 rats in Adriamycin-treated group, and 8 rats in Adriamycin+F351-treated group. All the animals (except for those in control group) were injected with 7.5 mg/kg adriamycin by tail vein injection on day 1 of the study. Animals in Adriamycin+F351-treated group were administrated by gauvage with 250 mg/kg F351 per day for 12 weeks starting on day 1 of the study. Animals in the control group were injected with PBS, instead. The study lasted for 12 weeks.
Rat urine was collected 24 hours before the end of the study and amount of urine proteins was determined. Renal tissues were also collected for pathology examination.
20 male Wistar rats (with body weight 180-220 g) were randomly divided into three groups with 4 rats in control group, 8 rats in Adriamycin-treated group, and 8 rats in Adriamycin+F351-treated group. All the animals (except for those in control group) were injected with 7.5 mg/kg adriamycin by tail vein injection at day 1 of the study. Animals in control group were injected with PBS instead. Animals in Adriamycin+F351-treated group were administrated by gauvage with 250 mg/kg F351 per day for 12 weeks starting on day 1.

[4] = system: radiation-induced lung injuries; assay: Example 1 repeated with F351 on radiation-induced lung injuries; type: in vivo; details: Prophylactic and therapeutic administration, irradiated mice, twenty per group; 'should show'
From the text: The experiments in Example 1 are repeated, except that 5-methylpyridin-1(4-hydroxyphenyl)-2-(1H)-one (F351) rather than Pirfenidone is used, with twenty mice in each group.

[5] = Blood level of Pirfenidone capsule in healthy subjects on repeated dosing; type: in vivo, human; details: Twelve healthy subjects, capsule 400 mg once a day or three times a day for 5 days
Experimental: Twelve healthy subjects were administered with Pirfenidone capsule at the dose of 400 mg, once a day or three times a day. The medication continued for 5 days. The blood level of the medicine was measured every day.

[6] = system: radiation-induced lung injuries; assay: Tolerance to the therapeutic irradiation dosage, prophylactic Pirfenidone in irradiated mice; type: in vivo; details: Prophylactic administration, 200 mg/kg gavage once a day started 2 days before irradiation
Experimental: (a) Method: the Same as Described in Example 1. Prophylaxis group (60 mice): The medication was started 2 days before the irradiation. The mice were divided into two groups. The animals were administered by gauvage with Pirfenidone (200 mg/kg, dissolved in 0.5% CMC-Na and administrated at the volume of 0.1 ml/10 g) once a day for 3 months. Each group consisted of 60 mice. The mice of each group were observed once a day after irradiation to examine the dyspnea and mortality. The lung weighing, cytometry and cell sorting of the bronchial alveolar lavage liquid, collagen content measurement (hydroxyproline), measurement of cytokines (ACE, TGF-β, TGF-α etc) in the plasma, and pathomorphological observation were conducted periodically after the medicament treatment.

[7] = system: radiation-induced lung fibrosis; assay: Prevention and/or treatment of radiation-induced lung fibrosis in mice (macrophages, fibrosis evaluation, hydroproline); type: in vivo, BalB/C male mice; details: for Cytometry of macrophages / Evaluation on lung fibrosis / Hydroproline level: P + R group: 200 mg/kg/day from two days before 1200 cGy chest radiation for 12 weeks
Experimental: BalB/C male mice were randomly divided into three groups, namely, Control group (C group), Radiation group (R group), and Pirfenidone+Radiation (P+R group). All the animals were given single dose radiation on chest at 1200 cGy. Drugs were administrated two days before radiation for 12 weeks at 200 mg/kg/day. Examination includes cytometry of macrophages (performed 4 weeks and 8 weeks after drug administration), determination of hydroproline level (performed 16 weeks and 24 weeks after drug administration), and pathology examination of lung tissues by HE staining and Masson staining and evaluation of lung fibrosis by Ashcroft semi-quantitative evaluation standard under a microscope (performed 16 weeks and 24 weeks after drug administration).

[8] = system: radiation-induced lung injuries; assay: Radiation-induced lung injuries in mice (bronchial alveolar lavage cell count, whole-lung hydroxyproline); type: in vivo, BALB/C mice; design: unit not given here; details: 1200 cGy chest
From the text: Irradiation source: Varian 600C linear accelerator, 6MV X ray
Irradiation method: The mice, six per row, were each detained in an organic-glass cage. The cage was lid with a 1.5 cm thick organic glass plate to compensate the buildup effect. The source-to-skin distance was 100 cm, the irradiation field was 2.5×18 cm. The animal's head and abdomen were sheltered by the lead baffle of the collimator, and thus only the chest was exposed to the irradiation. The single dose of irradiation is 1200 cGy. A sealed transfer box equipped with an air filtering device should be used to transfer the animals from or back to the animal house.
Animals: 10-week old BALB/C mice
Control Model group (60 mice): The mice were irradiated but not treated with the compound.
Prophylaxis group (60 mice): The medication at a predetermined dose was started 2 days before the irradiation. The irradiation method and the dosage were the same as in the control group. Pirfenidone was administered by gauvage (200 mg/kg, dissolved in 0.5% CMC-Na and administrated at the volume of 0.1 ml/10 g) once a day for 3 months.
Treatment group (60 mice): The medication was started at day 0 of the irradiation. The irradiation method and dosage were the same as in the control group. Pirfenidone was administered by gauvage (200 mg/kg, dissolved in 0.5% CMC-Na and administrated at the volume of 0.1 ml/10 g) once a day for 3 months.
Blank control group (60 mice): The mice were not irradiated, and were only administered by gauvage with 0.5% CMC-Na once a day for 3 months.
The mice of each group were observed once a day after irradiation to examine the mortality. The cytometry and cell sorting of the lavage, collagen content measurement (hydroxyproline), pathomorphological observation were conducted periodically after medicament treatment.
Cytometry of the bronchial alveolar lavage liquid: the right lung was perfused with normal saline. 1.5-2.0 ml lavage liquid was collected into an Ependoff tube by gentle suction. The content of the inflammatory cells was counted manually by use of a haemocytometer immediately after collection of the bronchial alveolar lavage liquid.
Measurement of the hydroxyproline content: The measurement was performed with isolated lung tissue by following the instruction in the hydroxyproline kit.
Histopathologic examination: The isolated lung tissue was fixed in formaldehyde solution, pafarrin-imbeded after dehydration, and then subjected to HE staining and Masson trichrome staining. Evaluation criteria: Radiation-induced lung injuries was evaluated according to the standard semi-quantitative scoring of the Ashcroft interstitial pulmonary fibrosis.

[9] = system: bleomycin-induced lung fibrosis; assay: Bleomycin-induced lung fibrosis in rat: side effects of dexamethasone compared with pirfenidone
From the text: Dexamethasone treatment was used as positive control in one study was designed to investigate the effects of pirfenidone on bleomycin-induced lung fibrosis in rat.

[10] = Prophylaxis group: 200 mg/kg gavage once a day started 2 days before irradiation, Month 2
[11] = Prophylaxis group: 200 mg/kg gavage once a day started 2 days before irradiation, Month 3
[12] = Prophylaxis group: 200 mg/kg gavage once a day started 2 days before irradiation, Month 4
[13] = Prophylaxis group: 200 mg/kg gavage once a day started 2 days before irradiation, Month 5
[14] = Prophylaxis group: 200 mg/kg gavage once a day started 2 days before irradiation, Month 6
[15] = Treatment group: 200 mg/kg gavage once a day from day 0 of irradiation, Month 2
[16] = Treatment group: 200 mg/kg gavage once a day from day 0 of irradiation, Month 3
[17] = Treatment group: 200 mg/kg gavage once a day from day 0 of irradiation, Month 4
[18] = Treatment group: 200 mg/kg gavage once a day from day 0 of irradiation, Month 5
[19] = Treatment group: 200 mg/kg gavage once a day from day 0 of irradiation, Month 6
[20] = Bleomycin-treated rats plus test drug

## Cc1ccc(=O)n(-c2ccc(O)cc2)c1 [F351, 5-methyl-1-(4-hydroxylphenyl)-2-(1H)-pyridone]
[1]
  Score on Kidney Fibrosis: 0.62 ± 0.15
[1]; x ± s
  Mean Arterial Pressure: 16.02 ± 0.27 kPa
[2]
  Lung Index (±S): 1511.71 ± 945.55
[2]; day 28
  Pathological changes of the lung (pathology examination, HE and Masson staining): significant improvement
[3]
  Degree of kidney fibrosis by pathology examination: reduced the degree of kidney fibrosis
[3]; x ± s
  Amount of Urine Proteins: 54.32 ± 10.88 mg/24 hrs
[4]
  Amount of inflammatory cells in the bronchial alveolar lavage liquid: reduce the amount of inflammatory cells

## Cc1ccc(=O)n(-c2ccccc2)c1 [Pirfenidone]
[5]
  Day on which blood stasis was achieved (blood level of the medicine): 3 days
[6]
  Cell count in the bronchial alveolar lavage liquid versus control group: lower than that of the control group
[7]; 200 mg/kg/day for 12 weeks
  Toxic effect on BalB/C mice: little toxic effect
[7]; 4 weeks
  Cytometry of macrophages: 6.67 ± 2.04 1 × 10^4/ml
[7]; 8 weeks
  Cytometry of macrophages: 2.27 ± 1.41 1 × 10^4/ml
[7]; 16 weeks
  Evaluation on lung fibrosis: 29.15 ± 18.74
  Hydroproline level: 67.65 ± 11.99 µg/mg
[7]; 24 weeks
  Evaluation on lung fibrosis: 19.46 ± 6.67
  Hydroproline level: 79.15 ± 10.90 µg/mg
[8]; Prophylaxis group: 200 mg/kg gavage once a day started 2 days before irradiation, Month 1
  Measurement of hydroxyproline in the whole lung: 43.85
[8]; [10]
  Cell count of bronchial alveolar lavage liquid: 2.27
  Measurement of hydroxyproline in the whole lung: 43.81
[8]; [11]
  Cell count of bronchial alveolar lavage liquid: 2.03
  Measurement of hydroxyproline in the whole lung: 50.46
[8]; [12]
  Cell count of bronchial alveolar lavage liquid: 4.5
  Measurement of hydroxyproline in the whole lung: 56.98
[8]; [13]
  Cell count of bronchial alveolar lavage liquid: 27.7
  Measurement of hydroxyproline in the whole lung: 58.1
[8]; [14]
  Cell count of bronchial alveolar lavage liquid: 15
  Measurement of hydroxyproline in the whole lung: 58.15
[8]; Treatment group: 200 mg/kg gavage once a day from day 0 of irradiation, Month 1
  Measurement of hydroxyproline in the whole lung: 36.11
[8]; [15]
  Cell count of bronchial alveolar lavage liquid: 5.78
  Measurement of hydroxyproline in the whole lung: 46.36
[8]; [16]
  Cell count of bronchial alveolar lavage liquid: 1.04
  Measurement of hydroxyproline in the whole lung: 52.13
[8]; [17]
  Cell count of bronchial alveolar lavage liquid: 8.04
  Measurement of hydroxyproline in the whole lung: 60.38
[8]; [18]
  Cell count of bronchial alveolar lavage liquid: 45.55
  Measurement of hydroxyproline in the whole lung: 67.92
[8]; [19]
  Cell count of bronchial alveolar lavage liquid: 39.29
  Measurement of hydroxyproline in the whole lung: 68.24

## C[C@@H]1C[C@H]2[C@@H]3CCC4=CC(=O)C=C[C@]4(C)[C@@]3(F)[C@@H](O)C[C@]2(C)[C@@]1(O)C(=O)CO [dexamethasone]
[9]; [20]
  Mortality rate: 64.3%
  Number of dead animal: 9/14
[9]; rat, in vivo
  Body weight: Loss of body weight
[2]
  Lung Index (±S): 1083.90 ± 289.66
